The values that follow come from US8106236B2, “Triaryl compounds and derivates thereof” (Ortho-McNeil Pharmaceutical, Inc., priority 2006, dated 2012).

One test addresses γ-secretase (Homo sapiens, UniProt P49768). Nature of the test: Screening for γ-secretase-modulating activity, Aβ42 in SKNBE2 cells carrying APP 695 wild type. In kind it is cell-based. The following applies: read-out: WTAPP SKNBE2 Aβ 42% Inhibition at 3 μM. As to the method: Screening of the Compounds of the Invention for γ-Secretase-Modulating Activity
Cells were grown to near confluency.

Test [1] concerns Aβ42. Nature of the test: In vivo Aβ42 lowering, mouse. The following applies: oral dose 30 mpk at 4 hr time point, read-out: Mouse Efficacy % Lowering Aβ 42. From the text:
(§1) To determine whether acute administration of an Aβ42 lowering agent would reduce Aβ42 levels in vivo, non-transgenic rodents, e.g. mice or rats can be used. Alternatively, two to three month old Tg2576 mice expressing APP695 containing the “Swedish” variant can be used or a transgenic mouse model developed by Dr. Fred Van Leuven (K.U.Leuven, Belgium) and co-workers, with neuron-specific expression of a clinical mutant of the human amyloid precursor protein [V717I] (Moechars et al., 1999 J. Biol. Chem. 274, 6483). […] Animals of this age have high levels of Aβ in the brain but no detectable Aβ deposition. Mice treated with the Aβ42 lowering agent will be examined and compared to those untreated or treated with vehicle and brain levels of soluble Aβ42 and total Aβ would be quantitated by standard techniques, for example, using ELISA. Treatment periods may vary from hours to days and will be adjusted based on the results of the Aβ42 lowering once a time course of onset of effect can be established.
(§2) A typical protocol for measuring Aβ42 lowering in vivo is shown but it is only one of many variations that could be used to optimize the levels of detectable Aβ. For example, aliquots of compounds can be dissolved in DMSO (volume equal to 1/10th of the final formulation volume), vortexed and further diluted (1:10) with a 10% (w/v) hydroxypropyl β cyclodextrin (HBC, Aldrich, Ref N° 33,260-7) solution in PBS, where after they are sonicated for 20 seconds.
(§3) Aβ42 lowering agents may be administered as a single oral dose given three to four hours before sacrifice and analysis or alternatively could be given over a course of days and the animals sacrificed three to four hours after the final dose is given.
(§4) Blood is collected at sacrifice. The blood collection is performed via a heart puncture during anesthesia with a mixture of Ketalar (Ketamin), Rompun (Xylazin 2%) and Atropin (2:1:1) and collected in EDTA treated collection tubes. Blood is centrifuged at 4000 g for 5 minutes at 4° C. and the plasma recovered for analysis.
(§5) The mice are anaesthetized with a mixture of Ketalar (Ketamin), Rompun (Xylazin 2%) and Atropin (2:1:1) and flushed trans-cardially with physiological serum at 4° C.
(§6) The brain is removed from the cranium and hindbrain and forebrain are separated with a cut in the coronal/frontal plane. The cerebellum is removed. The forebrain is divided evenly into left and right hemisphere by using a midline sagital cut.
(§7) One hemisphere is immediately immersed in liquid nitrogen and stored at −70° C. until homogenization for biochemical assays.
(§8) Brains are homogenized using a Potter, a glass tube (detergent free, 2 cm^3) and a mechanical homogenizer (650 rpm). A volume of 6.5×½ brain weight of freshly prepared 20 mM Tris/HCl buffer (pH 8.5) with Proteinase Inhibitors (1 tablet per 50 ml Tris/HCl buffer, Complete™, Roche, Mannheim, Germany) is used as homogenization buffer.
(§9) Samples are transferred from −70° C. into a sample holder with liquid nitrogen and each individual sample is pre-warmed by incubation on the bench for a few seconds prior to homogenization. The homogenates are collected in Beckman centrifuge tubes TLX and collected on ice prior to centrifugation. Between two samples, the Potter and the glass tube are rinsed carefully with distilled water without detergents and dried with absorption paper.
(§10) Samples are centrifuged in a pre-cooled ultracentrifuge (Beckman, Mannheim, Germany) for 1 hour and 20 minutes at 48000 rpm (135.000×g) at 4° C. The supernatant (soluble fraction containing secreted APP and amyloid peptides) is separated from the pellet (membrane fraction containing membrane-bound APP-fragments and plaque-associated amyloid peptides in case of aged mice).
(§11) Small reversed phase columns (C18-Sep-Pack Vac 3 cc cartridges, Waters, Mass., MA) are mounted on a vacuum system and washed with 80% acetonitrile in 0.1% Trifluoroacetic acid (A-TFA) followed with 0.1% TFA twice. […]

The test system of test [2] is Aβ42. Nature of the test: In vivo Aβ42 lowering, rat. The following applies: oral dose 30 mpk at 4 hr time point.
Source text: as §1, §2, §3, §4, §5, §6, §7, §8, §9, §10, §11

Consider `CC(C)CC(C(=O)O)c1cc(-c2ccc(C(F)(F)F)cc2)cc(-c2ccc(F)cc2F)c1` (centres unmarked) [Compound 2, 2-(2,4-Difluoro-4″-trifluoromethyl-[1,1′;3′,1″]terphenyl-5′-yl)-4-methyl-pentanoic acid], for which the inhibition (usually the drop in the measured response relative to a control, in per cent) at 3 µM on γ-secretase worked out at 53%.

In the case of `CC(C)CC(C(=O)O)c1cc(-c2ccc(C(C)C)cc2)cc(-c2ccc(C(F)(F)F)cc2)c1` (centres unmarked) [Compound 4, 2-(4-Isopropyl-4″-trifluoromethyl-[1,1′;3′,1″]terphenyl-5′-yl)-4-methyl-pentanoic acid], in the test with Aβ42 [1], the inhibition in vivo at 30 mg/kg came out at 30%.

`CC(C)CC(C(=O)O)c1cc(-c2ccc(C(F)(F)F)cc2)cc(-c2ccc(C(F)(F)F)cc2)c1` (centres unmarked) [Compound 5, 2-(4,4″-Bis-trifluoromethyl-[1,1′;3′,1″]terphenyl-5′-yl)-4-methyl-pentanoic acid]: the “Rat Efficacy % Lowering Aβ 42” value with Aβ42 [2] came out at 29%. The inhibition in vivo at 30 mg/kg in the test on Aβ42 [1] stood at 48%.

`CC(C)CC(C(=O)O)c1cc(-c2ccc(C(F)(F)F)cc2)cc(-c2ccccc2C(F)(F)F)c1` (centres unmarked) [Compound 6, 2-(2,4″-Bis-trifluoromethyl-[1,1′;3′,1″]terphenyl-5′-yl)-4-methyl-pentanoic acid]: the inhibition at 3 µM on γ-secretase amounted to 65%.

Turning to `CC(C)CC(C(=O)O)c1cc(-c2ccc(C(F)(F)F)cc2)cc(-c2ccccc2F)c1` (centres unmarked) [Compound 8, 2-(2-Fluoro-4″-trifluoromethyl-[1,1′;3′,1″]terphenyl-5′-yl)-4-methyl-pentanoic acid], the inhibition at 3 µM at γ-secretase is -1%.

As to `Cc1ccc(-c2cc(-c3ccc(C(F)(F)F)cc3)cc(C(CC(C)C)C(=O)O)c2)cc1` (centres unmarked) [Compound 11, 4-Methyl-2-(4-methyl-4″-trifluoromethyl-[1,1′;3′,1″]terphenyl-5′-yl)-pentanoic acid], the inhibition at 3 µM at γ-secretase was 68%.

For the compound `CC(C)CC(C(=O)O)c1cc(-c2ccc(C(F)(F)F)cc2)cc(-c2cccc(C(F)(F)F)c2)c1` (centres unmarked) [Compound 12, 2-(3,4″-Bis-trifluoromethyl-[1,1′;3′,1″]terphenyl-5′-yl)-4-methyl-pentanoic acid], the inhibition at 3 µM at γ-secretase worked out at 86%.

Consider `CC(C)CC(C(=O)O)c1cc(-c2ccc(C#N)cc2)cc(-c2ccc(C(F)(F)F)cc2)c1` (centres unmarked) [Compound 16, 2-(4-Cyano-4″-trifluoromethyl-[1,1′;3′,1″]terphenyl-5′-yl)-4-methyl-pentanoic acid], for which the inhibition in vivo at 30 mg/kg in the test with Aβ42 [1] is 10%.

Regarding `CC(C)CC(C(=O)O)c1cc(-c2ccc(C(F)(F)F)cc2)cc(-c2ccc(S(C)(=O)=O)cc2)c1` (centres unmarked) [Compound 21, 2-(4-Methanesulfonyl-4″-trifluoromethyl-[1,1′;3′,1″]terphenyl-5′-yl)-4-methyl-pentanoic acid], the inhibition at 3 µM on γ-secretase came to 46%.

As to `CC(C)CC(C(=O)O)c1cc(-c2ccc(C(F)(F)F)cc2)cc(-c2cc(Cl)ccc2Cl)c1` (centres unmarked) [Compound 23, 2-(2,5-Dichloro-4″-trifluoromethyl-[1,1′;3′,1″]terphenyl-5′-yl)-4-methyl-pentanoic acid], the inhibition at 3 µM on γ-secretase was 84%.

Take `COc1ccc(-c2cc(-c3ccc(C(F)(F)F)cc3)cc(C(CC(C)C)C(=O)O)c2)cc1` (centres unmarked) [Compound 24, 2-(4-Methoxy-4″-trifluoromethyl-[1,1′;3′,1″]terphenyl-5′-yl)-4-methyl-pentanoic acid]: the inhibition at 3 µM at γ-secretase worked out at 53%.

Consider `C=C(C)CC(C(=O)O)c1cc(-c2ccc(C(F)(F)F)cc2)cc(-c2ccc(C(F)(F)F)cc2)c1` (centres unmarked) [Compound 25, 2-(4,4″-Bis-trifluoromethyl-[1,1′;3′,1″]terphenyl-5′-yl)-4-methyl-pent-4-enoic acid], for which the inhibition at 3 µM at γ-secretase came to 82%.

As for `CC(C)CC(C(=O)O)c1cc(-c2cc(F)cc(F)c2)cc(-c2cc(F)cc(C(F)(F)F)c2)c1` (centres unmarked) [Compound 32, 4-Methyl-2-(3,5,3″-trifluoro-5″-trifluoromethyl-[1,1′;3′,1″]terphenyl-5′-yl)-pentanoic acid], the inhibition at 3 µM at γ-secretase turned out to be 80%.

As to `CC(C)CC(C(=O)O)c1cc(-c2cccc(C#N)c2)cc(-c2cc(C(F)(F)F)cc(C(F)(F)F)c2)c1` (centres unmarked) [Compound 34, 2-(3-Cyano-3″,5″-bis-trifluoromethyl-[1,1′;3′,1″]terphenyl-5′-yl)-4-methyl pentanoic acid], the inhibition at 3 µM at γ-secretase was 73%.

Regarding `CC(C)CC(C(=O)O)c1cc(-c2ccc(C(F)(F)F)cc2)cc(-c2cc(F)cc(C#N)c2)c1` (centres unmarked) [Compound 36, 2-(5-Cyano-3-fluoro-4″-trifluoromethyl-[1,1′;3′,1″]terphenyl-5′-yl)-4-methyl-pentanoic acid], the inhibition at 3 µM on γ-secretase was determined as 0%.

With `CC(C)CC(C(=O)O)c1cc(-c2ccc(C#N)cc2)cc(-c2cc(C(F)(F)F)cc(C(F)(F)F)c2)c1` (centres unmarked) [Compound 37, 2-(4-Cyano-3″,5″-bis-trifluoromethyl-[1,1′;3′,1″]terphenyl-5′-yl)-4-methyl pentanoic acid], on γ-secretase, the inhibition at 3 µM came out at 84%.

Regarding `CC(C)CC(C(=O)O)c1cc(-c2cc(F)cc(F)c2)cc(-c2cc(F)cc(F)c2)c1` (centres unmarked) [Compound 38, 4-Methyl-2-(3,5,3″,5″-tetrafluoro-[1,1′;3′,1″]terphenyl-5′-yl)-pentanoic acid], the inhibition at 3 µM at γ-secretase was 53%.

For `CC(C)C[C@H](C(=O)O)c1cc(-c2ccc(C(F)(F)F)cc2)cc(-c2cc(F)cc(F)c2)c1` [Compound 41, (S)-2-(3,5-Difluoro-4″-trifluoromethyl-[1,1′;3′,1″]terphenyl-5′-yl)-4-methyl-pentanoic acid], the inhibition in vivo at 30 mg/kg in the test with Aβ42 [1] came to 58%.

Take `CC(C)C[C@@H](C(=O)O)c1cc(-c2ccc(C(F)(F)F)cc2)cc(-c2cc(F)cc(F)c2)c1` [Compound 42, (R)-2-(3,5-Difluoro-4″-trifluoromethyl-[1,1′;3′,1″]terphenyl-5′-yl)-4-methyl-pentanoic acid]: the inhibition in vivo at 30 mg/kg in the test on Aβ42 [1] is 48%.

For `CC(C)C[C@H](C(=O)O)c1cc(-c2ccc(C(F)(F)F)cc2)cc(-c2cc(C(F)(F)F)cc(C(F)(F)F)c2)c1` [Compound 43, (S)-4-Methyl-2-(3,5,4″-tris-trifluoromethyl-[1,1′;3′,1″]terphenyl-5′-yl)-pentanoic acid], in the test on Aβ42 [1], the inhibition in vivo at 30 mg/kg is 40%.

In the case of `CC(C)C[C@@H](C(=O)O)c1cc(-c2ccc(C(F)(F)F)cc2)cc(-c2ccc(Cl)c(F)c2)c1` [Compound 47, (R)-2-(4-Chloro-3-fluoro-4″-trifluoromethyl-[1,1′;3′,1″]terphenyl-5′-yl)-4-methyl-pentanoic acid], the inhibition in vivo at 30 mg/kg in the test with Aβ42 [1] is 45%.

Turning to `CC(=O)c1ccc(-c2cc(-c3ccc(C(F)(F)F)cc3)cc(C(CC(C)C)C(=O)O)c2)cc1` (centres unmarked) [Compound 48, 2-(4-Acetyl-4″-trifluoromethyl-[1,1′;3′,1″]terphenyl-5′-yl)-4-methyl-pentanoic acid], the inhibition at 3 µM at γ-secretase stood at 18%.

For the compound `CC(C)CC(C(=O)O)c1cc(-c2ccc(C(F)(F)F)cc2)cc(-c2cccc(N(C)C)c2)c1` (centres unmarked) [Compound 49, 2-(3-Dimethylamino-4″-trifluoromethyl-[1,1′;3′,1″]terphenyl-5′-yl)-4-methyl-pentanoic acid], at γ-secretase, the inhibition at 3 µM is -17%.

With `CC(C)C[C@@H](C(=O)O)c1cc(-c2ccc(OC(F)(F)F)cc2)cc(-c2ccc(C(F)(F)F)cc2)c1` [Compound 51, (R)-4-Methyl-2-(4-trifluoromethoxy-4″-trifluoromethyl-[1,1′;3′,1″]terphenyl-5′-yl)-pentanoic acid], in the test with Aβ42 [1], the inhibition in vivo at 30 mg/kg is 50%.

As to `CC(C)C[C@H](C(=O)O)c1cc(-c2ccc(OC(F)(F)F)cc2)cc(-c2ccc(C(F)(F)F)cc2)c1` [Compound 52, (S)-4-Methyl-2-(4-trifluoromethoxy-4″-trifluoromethyl-[1,1′;3′,1″]terphenyl-5′-yl)-pentanoic acid], in the test with Aβ42 [1], the inhibition in vivo at 30 mg/kg was 48%.
